Experiment [1] deals with pediatric cancer patient having drug-induced myocardial dysfunction caused by an anthracycline anticancer drug. Conditions: cited from earlier work.
Experiment [2] relates to early breast cancer patient treated with an anthracycline anticancer drug. The following applies: cited from earlier work.
Experiment [3] has as its system myocardial dysfunction model mice induced by doxorubicin. The experiment in a line: Echocardiography (left ventricular fractional shortening) after α-GalCer in doxorubicin myocardial dysfunction model. Conditions: α-GalCer 0.1 μg/g i.p. 4 days before and 3 days after doxorubicin 20 mg/kg i.p.; echocardiography 14 days after DOX; vs DOX group; FIG. 2. In kind it is in vivo, C57BL/6 mice. As to the method: (§1) Eight-week-old male C57BL/6 mice were divided into three groups (Control group, DOX group, and DOX+α-GC group). α-GalCer (KRN7000 (Funakoshi Co., Ltd.); 0.1 μg/g weight) was intraperitoneally administered to the DOX+α-GC group, while PBS was intraperitoneally administered to the Control group and the DOX group. Four days after the administration, doxorubicin (Doxorubicin hydrochloride, D1515 (SIGMA-ALDRICH); 20 mg/kg weight) was intraperitoneally administered to the DOX group and the DOX+α-GC group, while Vehicle (PBS) was intraperitoneally administered to the Control group. Three days after the administration of DOX or PBS, α-GalCer (0.1 μg/g weight) was intraperitoneally administered to the DOX+α-GC group, while PBS was intraperitoneally administered to the Control group and the DOX group. Fourteen days after the administration of DOX or PBS, echocardiography was performed for mice of each of the groups to evaluate their cardiac functions, and subsequently, the hearts of the mice were collected to perform pathological evaluation of myocardial tissue fibrosis and evaluation of inflammatory cytokine expression by using a quantitative real-time RT-PCR method. FIG. 1 illustrates the test schedules.
The echocardiography was carried out by using an ultrasound recording device EUB-8000 (Hitachi, Ltd.) under anesthesia with pentobarbital. […]

The test system is the same in experiment [4]. The experiment in a line: Myocardial tissue fibrosis, Picro-sirius Red staining, after α-GalCer. In kind it is in vivo, C57BL/6 mice. Conditions: α-GalCer 0.1 μg/g i.p. before and after doxorubicin 20 mg/kg; heart collected 14 days after DOX; vs DOX group; FIG. 3. As to the method:
as §1, with “Three days after the administration of DOX or PBS, α-GalCer (0.1 μg/g weight) was intraperitoneally administered to the DOX+α-GC group, while PBS was intraperitoneally administered to the Control group and the DOX group.” left out, “FIG. 1 illustrates the test schedules.” left out
Myocardial tissue fibrosis was evaluated by fixing a frozen section sample of myocardial tissue with 10% formalin and then staining the sample with 3% Picro-sirius Red (100 ml of Van Gieson Solution P (FUJIFILM Wako Pure Chemical Corporation)+3 ml of 1% Sirius Red (MUTO PURE CHEMICALS CO., LTD.)) to detect collagen. […]

Experiment [5] concerns inflammatory cytokine expression in myocardial tissues. Nature of the experiment: Inflammatory cytokine gene expression in myocardial tissue, quantitative real-time RT-PCR. In kind it is in vivo, C57BL/6 mice. Conditions: 14 days after DOX. As to the method:
as §1
Furthermore, total RNA was extracted from myocardial tissues using QuickGene-810 (FUJIFILM Corporation), and subjected to a reverse transcription reaction using a cDNA reverse transcription kit (Applied Biosystems) to prepare cDNA. Using this cDNA as a template, a quantitative real-time RT-PCR was performed by the TaqMan method to evaluate the expression of inflammatory cytokine. Primer sets and probes used (all of them from Applied Biosystems) were as follows. GAPDH was used as an endogenous control. • IFN-γ: TaqMan Gene Expression Assays, Mm01168134 ml • TNF-α: TaqMan Gene Expression Assays, Mm00443258 ml • IL-1β: TaqMan Gene Expression Assays, Mm00434228 ml • TGF-β1: TaqMan Gene Expression Assays, Mm01178820 ml • IL-4: TaqMan Gene Expression Assays, Mm00445259 ml • IL-10: TaqMan Gene Expression Assays, Mm01288386 ml • GAPDH: Mouse GAPD (20X), Probe dye VIC-MGB
(In general: Quantitative PCR measures a nucleic acid by following its amplification.)

Experiment [6] concerns activated, M1 and M2 macrophage markers in myocardial tissues. The experiment in a line: Macrophage marker gene expression in myocardial tissue, quantitative real-time RT-PCR. In kind it is in vivo, C57BL/6 mice. Conditions: 14 days after DOX, FIG. 6. As to the method: Eight-week-old male C57BL/6 mice were divided into three groups (Control group, DOX group, and DOX+α-GC group). α-GalCer (KRN7000 (Funakoshi Co., Ltd.); 0.1 μg/g weight) was intraperitoneally administered to the DOX+α-GC group, while PBS was intraperitoneally administered to the Control group and the DOX group. Four days after the administration, doxorubicin (Doxorubicin hydrochloride, D1515 (SIGMA-ALDRICH); 20 mg/kg weight) was intraperitoneally administered to the DOX group and the DOX+α-GC group, while Vehicle (PBS) was intraperitoneally administered to the Control group. Three days after the administration of DOX or PBS, α-GalCer (0.1 μg/g weight) was intraperitoneally administered to the DOX+α-GC group, while PBS was intraperitoneally administered to the Control group and the DOX group. Fourteen days after the administration of DOX or PBS, echocardiography was performed for mice of each of the groups to evaluate their cardiac functions, and subsequently, the hearts of the mice were collected to perform pathological evaluation of myocardial tissue fibrosis and evaluation of inflammatory cytokine expression by using a quantitative real-time RT-PCR method. FIG. 1 illustrates the test schedules. Furthermore, using the above-mentioned cDNA as a template, a quantitative real-time RT-PCR was performed by the TaqMan method using the following primer sets and probes (all of them from Applied Biosystems) to evaluate the expression of CD11c and MHC II (activated macrophage markers), MCP-1, iNOS, and IL-1β (M1 macrophage markers), and […] and Arginase 1 (Arg1) (M2 macrophage markers). GAPDH was used as an endogenous control. • CD11c: TaqMan Gene Expression Assays, Mm00498701 ml • MHC II (H2-A1): TaqMan Gene Expression Assays, Mm00439211 ml • MCP1 (CCL2): TaqMan Gene Expression Assays, Mm00441242 ml • iNOS (NOS2): TaqMan Gene Expression Assays, Mm00440502 ml • IL-1β: TaqMan Gene Expression Assays, Mm00434228 ml • […]: TaqMan Gene Expression Assays, Mm00445109 ml • Arg1: TaqMan Gene Expression Assays, Mm00475988 ml • GAPDH: Mouse GAPD (20X), Probe dye VIC-MGB

In experiment [7] the test system is post-myocardial infarction heart failure. The following applies: ischemic heart failure; earlier work of the inventors; cited from earlier work.
Setting [8] is: comparison between the three groups.

Consider `CCOC(=O)[C@H](CCc1ccccc1)N[C@@H](C)C(=O)N1CCC[C@H]1C(=O)O` [enalapril], for which, in experiment [1], the “left ventricular end-systolic wall stress” value is reported as “reduced a left ventricular end-systolic wall stress”; the “other important parameters reflecting a motor ability and the like” value is “failed to improve other important parameters reflecting a motor ability and the like”.

For the molecule `COCCc1ccc(OCC(O)CNC(C)C)cc1` (stereo not shown) [metoprolol], the “decrease in left ventricular ejection fraction” value in experiment [2] is listed as “did not prevent the decrease in left ventricular ejection fraction”.

`CCCCCCCCCCCCCCCCCCCCCCCCCC(=O)N[C@@H](CO[C@H]1O[C@H](CO)[C@H](O)[C@H](O)[C@H]1O)[C@H](O)[C@H](O)CCCCCCCCCCCCCC` [α-GalCer, α-galactosylceramide]: the “cardiac function, left ventricular fractional shortening (% FS)” value in experiment [3] is reported as “did not show the decrease in cardiac function as observed in the DOX group”. For the same molecule, the “myocardial tissue fibrosis (ratio of stained area)” value in experiment [4] is on record as “the progression as observed in the DOX group was significantly suppressed”. For the same molecule, in experiment [5] (DOX+α-GC group vs Control and DOX groups, FIG. 5), the “expression of IFN-γ in myocardial tissue” value is listed as “tended to be more enhanced in the DOX+α-GC group than in other groups”. Also, the “expression of interleukin-4 (IL-4) in myocardial tissue” value in experiment [5] (DOX+α-GC group vs Control and DOX groups, GAPDH endogenous control, FIG. 4, FIG. 5) was “tended to be more enhanced in the DOX+α-GC group than in other groups”. Also, in experiment [5] (comparison between Control, DOX and DOX+α-GC groups, FIG. 5), the “expression of other cytokines such as IL-10 in myocardial tissue” value was “any significant difference in the expression of other cytokines such as IL-10 between the three groups was not observed”. For the same molecule, in experiment [6] (DOX+α-GC group vs other groups), the “expression of Arg1 (M2 macrophage marker) in myocardial tissue” value is on record as “more enhanced in the DOX+α-GC group than in other groups”, the “expression of CD11c (activated macrophage marker) in myocardial tissue” value is on record as “more enhanced in the DOX+α-GC group than in other groups”, the “expression of MHC II (activated macrophage marker) in myocardial tissue” value was “more enhanced in the DOX+α-GC group than in other groups” and the “expression of Retnla (M2 macrophage marker) in myocardial tissue” value is recorded as “more enhanced in the DOX+α-GC group than in other groups”. Besides, in experiment [6] (setting [8]), the “expression of IL-1β (M1 macrophage marker) in myocardial tissue” value was “any significant difference in the expression of MCP-1, iNOS, and IL-1β as M1 macrophage markers between the three groups was not observed”; the “expression of MCP-1 (M1 macrophage marker) in myocardial tissue” value was “any significant difference in the expression of MCP-1, iNOS, and IL-1β as M1 macrophage markers between the three groups was not observed”; the “expression of iNOS (M1 macrophage marker) in myocardial tissue” value is “any significant difference in the expression of MCP-1, iNOS, and IL-1β as M1 macrophage markers between the three groups was not observed”. Besides, the “therapeutic effect on post-myocardial infarction heart failure” value in experiment [7] is reported as “confirmed therapeutic effects”.

The values above are taken from US20220160659A1, “PHARMACEUTICAL COMPOSITION COMPRISING a-GALACTOSYLCERAMIDE AND/OR DENDRITIC CELLS PULSED WITH a-GALACTOSYLCERAMIDE” (National University Corporation Hokkaido University, priority 2019, published 2022).
